The Kinase Knowledgebase extract (Sharma et al. 2016)
pIC50: −log10 of the molar value. Where “and” joins values, the source holds several entries; their conditions need not be identical. Identical values can stand only once. Blank lines part the entries; values can stand above or below the molecule they belong to.

Columns and labels:
MAPK14 = MAPK14 (UniProt Q16539); test: p38-alpha Inhibition
MAPK14 (Lewis rat) = test: Adjuvant-Induced Arthritis Model
MAPK14 (human) = MAPK14 (human) (UniProt Q16539); test: p38 --- TNFalpha Release Inhibition; settings: monocyte
MAPK14 (human), sequence (Q16539 whole entry, looked up): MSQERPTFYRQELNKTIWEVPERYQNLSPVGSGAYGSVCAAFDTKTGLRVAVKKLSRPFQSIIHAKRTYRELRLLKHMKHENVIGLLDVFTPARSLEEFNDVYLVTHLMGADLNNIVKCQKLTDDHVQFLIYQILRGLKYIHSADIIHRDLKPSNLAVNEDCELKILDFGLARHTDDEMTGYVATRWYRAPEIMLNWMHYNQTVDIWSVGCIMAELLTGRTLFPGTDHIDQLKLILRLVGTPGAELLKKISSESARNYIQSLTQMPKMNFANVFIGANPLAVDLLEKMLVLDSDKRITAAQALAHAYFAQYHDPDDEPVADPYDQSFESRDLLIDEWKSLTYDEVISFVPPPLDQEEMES

MAPK14, sequence (Q16539 whole entry, looked up): as above

SMILES: O=c1c(-c2ccncc2)c(-c2ccc(F)cc2)[nH]n1-c1ccc(Cl)cc1
inhibition (MAPK14; concentration not given here): 43%

SMILES: COc1ccc2c(c1)c(CC(=O)O)c(C)n2C(=O)c1ccc(Cl)cc1
score (MAPK14 (Lewis rat)): 4.9 and 2.9

SMILES: Fc1ccc(-c2[nH]c(-c3ccc(Cl)cc3)cc2-c2ccccn2)cc1
pIC50 (MAPK14): < 5.00

SMILES: CS(=O)(=O)c1ccc(-c2cc(-c3ccncc3)c(-c3ccc(F)cc3)[nH]2)cc1
pIC50 (MAPK14 (human)): 7.64

SMILES: CC(C)(C)Oc1ccc(-c2[nH]c(-c3ccccc3)cc2-c2ccncc2)cc1
pIC50 (MAPK14): < 6.00

The next lines start with results.

pIC50 (MAPK14): < 5.00
SMILES: CCOC(=O)c1ccc(-c2[nH]c(-c3ccccc3)cc2-c2ccncc2)cc1

pIC50 (MAPK14 (human)): 7.19
SMILES: C[S+]([O-])c1ccc(-c2cc(-c3ccncc3)c(-c3ccc(F)cc3)[nH]2)cc1 (stereo not given)
ID50 (MAPK14 (Lewis rat)): 7.4 mg/kg/day
score (MAPK14 (Lewis rat)): 3.6 and 1.6

pIC50 (MAPK14): 7.00
SMILES: Fc1ccc(-c2[nH]c(-c3ccc(Br)cc3)cc2-c2ccncc2)cc1
